# Source: patent US12343377B2, “Combination therapies comprising a hypomethylation agent for treating cancer” (ALX Oncology Inc., priority 2020, dated 2025)
# Assays:
# MCL-1 = MCL-1 (Homo sapiens, UniProt Q07820); conditions: selectivity profile; cited from earlier work
# BFL-1 (BCL2A1/A1) = molecular target: T1, BFL-1 (BCL2A1/A1) (Homo sapiens, UniProt Q16548); conditions: selectivity profile; cited from earlier work
# T1 sequence (Q16548 1-175): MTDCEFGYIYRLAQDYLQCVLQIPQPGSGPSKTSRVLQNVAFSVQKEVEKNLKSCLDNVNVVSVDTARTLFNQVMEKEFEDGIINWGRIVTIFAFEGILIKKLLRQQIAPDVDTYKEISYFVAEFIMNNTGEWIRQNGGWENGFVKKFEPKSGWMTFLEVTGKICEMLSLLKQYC
# BCL-XL = BCL-XL (Homo sapiens, UniProt Q07817); conditions: selectivity profile; cited from earlier work
# BCL-XL, sequence (Q07817 whole entry, species assumed): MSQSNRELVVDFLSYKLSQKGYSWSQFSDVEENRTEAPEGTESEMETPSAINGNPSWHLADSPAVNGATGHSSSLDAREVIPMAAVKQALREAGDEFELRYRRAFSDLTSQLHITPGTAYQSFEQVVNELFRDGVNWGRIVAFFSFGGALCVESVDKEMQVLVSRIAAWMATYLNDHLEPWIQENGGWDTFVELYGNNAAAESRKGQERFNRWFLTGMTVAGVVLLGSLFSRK
# [1] = system: BCL-XL-dependent cells, such as platelets; conditions: cited from earlier work
# HL60 cells = assay: In vitro phagocytosis assay, HL60 cells by human monocyte-derived macrophages; type: cell-based; conditions: single agent, compared to untreated cells; FIG. 1A
# Method: CD14^+ monocytes were purified by negative selection using the Classical Monocytes Isolation Kit, human (Miltenyi Biotec) and LS columns (Miltenyi Biotec) according to the manufacturer's protocol. CD14^+ monocytes were seeded into 150 mm tissue culture dishes (Corning) at 6 million cells per dish in 25 mL medium comprised of RPMI complete media, supplemented with 50 ng/mL M-CSF (Miltenyi Biotec), 10% FBS (Thermo Fisher Scientific), 1% penicillin/streptomycin, and 1% GlutaMAX. Cells were cultured for seven to eleven days.
# Target cells, HL60 and OCI-AML3 cells, were washed once in PBS and labeled with the Celltrace CFSE Cell Proliferation kit (Thermo Fisher Scientific) in suspension with 300 nM CFSE (carboxyfluorescein succinimidyl ester) according to the manufacturer's instructions and resuspended in RPMI complete media. Target cells were incubated overnight with two-fold serial dilutions of azacitidine between 39 nM to 2.5 μM in RPMI complete media. Prior to incubation with macrophages, cells were resuspended in RPMI. Macrophages were detached from culture plates by washing once with PBS and incubation in TrypLE Select for 20 minutes at 37° C. […]
# Briefly HL60 cells and OCI-AML3 cells (i.e., “target cells”) were labeled with CFSE (carboxyfluorescein succinimidyl ester) and treated with azacitidine (aza) for 48 hours. […] Macrophage cells were pelleted, stained, and analyzed via flow cytometry. […]
# [2] = Human PBMC viability assay; type: cell-based; conditions: CD11c+ dendritic cells in human PBMC cultures, 1.25 pM azacitidine alone, FIG. 2, read-out: reduction of the viability of CD11c^+ dendritic cells
# Method: PBMCs were counted and plated in complete RPMI. Drug A alone or in combination azacitidine was added to the PBMCs. Following 72-hour or five day incubation at 37° C., cells were stained with a fixable viability dye followed by staining with cell surface markers: CD3, CD19, CD14, CD56, CD16, CD11c, and HLADR (Biolegend). Cells were processed for flow cytometry by Attune NxT and analyzed by FlowJo 10.3. Viability gating strategy included double singlet exclusion by FSC height and FSC width followed by cell type surface marker then viability gate. CD11c DCs were identified as lineage negative (CD3, CD19, CD14, CD16 and CD56) HLADR^+ CD11c^+. Percent viable cells were tabulated using GraphPad Prism 8.
# Dendritic cells (DCs) are antigen-presenting cells (also known as accessory cells) of the mammalian immune system. They are believed to act as messengers between the innate and the adaptive immune systems.
# [3] = system: calreticulin on the surface of HL60 cells; assay: Analysis of calreticulin cell-surface expression, HL60; type: cell-based, human; conditions: with increased concentrations of azacitidine, 72 hrs; FIG. 3A
# Method: (§1) To detect changes in calreticulin expression levels in human acute myeloid leukemia cell lines HL60, OCI-AML3 and MV4-11, cells were incubated with either 2.5 pM or 75 nM of azacitidine (Selleckchem) in complete growth medium (RPMI1640, 10% FBS) in a 37° C. 5% CO2 incubator for 72 hrs. Cells grown in complete growth medium was used as a control for calreticulin baseline expression. After incubation, cells were harvested and washed once in staining buffer (PBS, 2% FBS), stained in PBS with fixable live/dead stain (Invitrogen) for 1 hour at 4° C., washed once in staining buffer and incubated with 500 ng/mL of calreticulin-AF647 (clone 1G6A7, Novus). After a 1 hour incubation at 4° C., cells were washed twice in staining buffer and fixed in 0.5% paraformaldehyde. Cells were analyzed on an Attune (ThermoScientific), and subsequent data analysis using Flowjo 10.6.
# (§2) HL60 is a TP53null FLT3 wt cell line; OCI-AML3 is TP53 wt and FLT3 wt; and MV4-11 is TP53 wt and FLT3-ITD.
# [4] = system: calreticulin on the surface of OCI-AML3 cells; assay: Analysis of calreticulin cell-surface expression, OCI-AML3; type: cell-based, human; conditions: with increased concentrations of azacitidine, 72 hrs; FIG. 3A
# Method: as §1, §2
# [5] = system: calreticulin on the surface of MV4-11 cells; assay: Analysis of calreticulin cell-surface expression, MV4-11; type: cell-based, human; conditions: for expression of the pro-phagocytic signal calreticulin in the MV411 AML cell line: FIG. 3B
# Method: as §1, §2
# (§3) The effect of azacitidine or venetoclax on the expression levels of calreticulin on the cell surfaces of MV4-11 and primary AML cells from two different human patients was also tested.
# [6] = system: calreticulin on primary AML blasts; assay: Analysis of calreticulin cell-surface expression, primary AML blasts; type: cell-based; conditions: two human patients; FIG. 3B
# Method: as §3
# [7] = system: CD47 on the cell surfaces of MV4-11; assay: CD47 cell-surface expression, MV4-11; type: cell-based, human; conditions: FIG. 3C
# Method: (§4) In another set of assays, the effect of azacitidine or venetoclax on the expression levels of CD47 on the cell surfaces of MV4-11 and primary AML cells from two different human patients was tested.
# [8] = system: CD47 on primary AML blasts; assay: CD47 cell-surface expression, primary AML blasts; type: cell-based; conditions: two human patients; FIG. 3C
# Method: as §4
# HL60 tumor xenografts = assay: Subcutaneous HL60 leukemia xenograft model; type: in vivo, mice
# Method: (§5) Tumors were monitored until average size of all tumors reached 105 mm^3 for HL60, 75 mm^3 for MV4-11 and 112 mm^3 for OCI-AML3. […] Mice in HL60 and OCI-AML3 tumor models were dosed intraperitoneally (IP) five times, three days apart at 5 mg/kg for azacitidine, and six times, three days apart at 10 mg/kg for Drug A. MV4-11 tumor bearing mice were dosed IP three times per week at 5 mg/kg for azacitidine and 10 mg/kg for Drug A. Tumors were measured in two dimensions with calipers and tumor volume was calculated as: length×width×width×0.5, where length was the larger of the two measurements. Animals were sacrificed when tumor reached a volume of ˜2000 mm^3.
# (§6) In this Example, the anti-tumor activity of Drug A in combination with azacitidine (aza) was assessed mice bearing either HL60, OCI-AML3 and MV4-11 human leukemia tumor xenografts. (See Example 1 for experimental details.) HL60 is a TP53null FLT3 wt cell line; OCI-AML3 is TP53 wt and FLT3 wt; and MV4-11 is TP53 wt and FLT3-ITD.
# (§7) Mice bearing HL60 xenografted tumors were randomized to 4 groups of 4-5 mice each. One group of mice was given (a) Drug A at 10 mg/kg IP (Q3D, 6 doses total), (b) aza at 5 mg/kg IP (Q3D, 5 doses total), (c) both Drug A and aza (at the doses and administration schedule for each single agent), or (d) vehicle. Mice bearing OCI-AML3 xenografts were similarly randomized and treated. […]
# [9] = system: OCI-AML3 tumor xenografts; assay: Subcutaneous OCI-AML3 leukemia xenograft model; type: in vivo, mice; conditions: day 20, Drug A 10 mg/kg IP Q3D 6 doses, aza 5 mg/kg IP Q3D 5 doses
# Method: as §5, §6, §7
# MV4-11 tumor xenografts = assay: Subcutaneous MV4-11 leukemia xenograft model; type: in vivo, mice; conditions: day 26, Drug A 10 mg/kg and aza 5 mg/kg IP three times per week
# Method: as §5, §6
# Mice bearing MV4-11 xenografts were randomized into 4 groups of 9-10 each. One group of mice was given Drug A at 10 mg/kg IP (3 times per week), the second group of mice was given aza at 5 mg/kg IP (three times per week), the third group was given both Drug A and aza (at the doses and administration schedule for each single agent, and the fourth group was given vehicle. […]
# [10] = system: HL60-LUC2 acute myeloid leukemic model; assay: Disseminated HL60-LUC2 systemic leukemic model, Drug A and azacitidine; type: in vivo, mice
# Method: After transplantation of HL60-LUC2 cells by intravenous tail injection into immunodeficient NSG mice (7.5E6 cells/animal), engraftment was confirmed by bioluminescence imaging and mice were randomized into 4 groups (10 mice/group). Treatment was performed as shown Table A below.
# Treatment was continued until mice received 14 doses of single agent Drug A, single agent azacitidine, or Drug A in combination with azacitidine.
# [11] = cited from earlier work
# [12] = system: HL60-LUC2 acute myeloid leukemic model; assay: Disseminated HL60-LUC2 systemic leukemic model, Drug A and venetoclax; conditions: monotherapy; Drug A 30 mg/kg IP, venetoclax 100 mg/kg oral gavage, Q3D 5 doses; FIG. 8
# Method: The HL60LUC2 (ATCC) cell line was injected through the tail vein of NOD-SCID female mice at a concentration of 7.5×10^6 cells per in RPMI 1640. Bioluminescence imaging (BLI) acquisition and analysis were performed using the IVIS Spectrum (Perkin Elmer) to monitor tumor growth. Firefly D-luciferin (Regis Technologies) was diluted to 15 mg/ml stock in phosphate-buffered saline and filtered before use. Groups of mice were placed in the specimen chamber and injected with 200 μl of D-luciferin intraperitoneally (IP). BLI whole-body signal was acquired at approximately 10 minutes post injection. BLI flux values were serially monitored twice a week with initial scans acquired three days post inoculation of mice. Living Image Software (Perkin Elmer) was used to quantify BLI average total flux values (photons/second, p/s) following the manual construction of regions of interest over the entire mouse body. […] Drug A-treated mice were dosed by IP injection at 30 mg/kg, five times total at three days apart. Animals were sacrificed when the total flux reached 1E11 or loss in body weight of greater than 20%.
# Venetoclax and Drug A therapies were initiated 4 days post engraftment and dosed every 3 days for a total of 5 doses.
# MCL-1, sequence (Q07820 whole entry, species assumed): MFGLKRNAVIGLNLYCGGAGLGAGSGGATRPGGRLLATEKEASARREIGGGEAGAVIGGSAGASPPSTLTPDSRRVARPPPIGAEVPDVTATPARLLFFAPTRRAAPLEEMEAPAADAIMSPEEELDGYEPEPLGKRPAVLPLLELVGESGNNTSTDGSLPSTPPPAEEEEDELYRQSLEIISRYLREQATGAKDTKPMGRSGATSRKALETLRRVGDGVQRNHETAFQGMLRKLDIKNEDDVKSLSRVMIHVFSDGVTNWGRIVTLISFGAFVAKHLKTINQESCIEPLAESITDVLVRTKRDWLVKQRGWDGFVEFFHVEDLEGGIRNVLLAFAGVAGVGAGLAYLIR
compound,measurement,setting,value
"O=C(c1cc(-c2cc3c(cc2C(=O)N2Cc4ccccc4C[C@H]2CN2CCOCC2)OCO3)n2c1CCCC2)N(c1ccccc1)c1ccc(O)cc1 [Drug S55746, (S)—N-(4-hydroxyphenyl)-3-(6-(3-(morpholinomethyl)-1,2,3,4-tetrahydroisoquinoline-2-carbonyl)benzo[d][1,3]dioxol-5-yl)-N-phenyl-5,6,7,8-tetrahydroindolizine-1-carboxamide]",binding to MCL-1,MCL-1,no significant binding
same,binding to BFL-1 (BCL2A1/A1),BFL-1 (BCL2A1/A1),no significant binding
same,affinity for BCL-XL,BCL-XL,poor affinity
same,"cytotoxic activity on BCL-XL-dependent cells, such as platelets",[1],no cytotoxic activity
"Nc1ncn([C@@H]2O[C@H](CO)[C@@H](O)[C@H]2O)c(=O)n1 [azacitidine, 4-amino-1-[(2R,3R,4S,5R)-3,4-dihydroxy-5-(hydroxymethyl)oxolan-2-yl]-1,3,5-triazin-2-one]",macrophage-mediated phagocytosis of HL60 cells,HL60 cells,stimulated macrophage-mediated phagocytosis of HL60 cells slightly
same,cytotoxicity at 1.25 pM,[2],~40%
same,expression of calreticulin on the surface of HL60 cells,[3],increased
same,expression of calreticulin on the surface of OCI-AML3 cells,[4],increased
same,expression of the pro-phagocytic signal calreticulin in the MV411 AML cell line,[5],increase
same,expression of calreticulin on the surface of MV4-11 cells,"[5]; with increased concentrations of azacitidine, 72 hrs, FIG. 3A",increased
same,expression of the pro-phagocytic signal calreticulin in primary AML blasts,[6],increase
same,expression of the anti-phagocytic signal CD47 in the MV411 AML cell line,[7],increase
same,expression of the anti-phagocytic signal CD47 in primary AML blasts,[8],increase
same,HL60 tumor growth,"HL60 tumor xenografts; day 20, compared to vehicle control, FIG. 4A",minimally inhibited
same,% tumor growth inhibition (TGI),"HL60 tumor xenografts; day 20, HL60, Drug A 10 mg/kg IP Q3D 6 doses, aza 5 mg/kg IP Q3D 5 doses",42%
same,% tumor growth inhibition (TGI),[9],33%
same,% tumor growth inhibition (TGI),MV4-11 tumor xenografts,49%
same,tumor growth,"[10]; 14 doses, Drug A 30 mg/kg, azacitidine 5 mg/kg, FIG. 5C",moderate tumor growth inhibition
same,Day by which all mice succumbed,"[10]; second set of experiments, single agent, Q3D 14 doses, FIG. 5D",~85 days
"CC1(C)CCC(CN2CCN(c3ccc(C(=O)NS(=O)(=O)c4ccc(NCC5CCOCC5)c([N+](=O)[O-])c4)c(Oc4cnc5[nH]ccc5c4)c3)CC2)=C(c2ccc(Cl)cc2)C1 [venetoclax, 4-(4-{[2-(4-chlorophenyl)-4,4dimethylcyclohex-1-en-1-yl]methyl}piperazin-1-yl)-N-({3-nitro-4-[(tetrahydro-2H-pyran-4ylmethyl)amino]phenyl}sulfonyl)-2-(1H-pyrrolo[2,3-b]pyridin-5-yloxy)benzamide]",expression of the pro-phagocytic signal calreticulin in the MV411 AML cell line,[5],increase
same,expression of the pro-phagocytic signal calreticulin in primary AML blasts,[6],increase
same,expression of the anti-phagocytic signal CD47 in the MV411 AML cell line,[7],increase
same,expression of the anti-phagocytic signal CD47 in primary AML blasts,[8],increase
same,aqueous solubility,[11],very low
same,tumor growth,[12],moderate tumor growth inhibition
